Reference: paper PMC9233935 (Journal of medicinal chemistry, 2022)
Values after ≈ are worked out from the molar mass of the structure shown. Where two headings read alike, the source gives them in different places.

Tests used:
[1] = tested on: S. aureus ATTC 25923; assay: microbe, parasite or virus in culture; settings: Staphylococcus aureus, ATTC25923, read-out: Sau MIC
[2] = target: Mtb gyrase (Mycobacterium tuberculosis, UniProt P9WG45+P9WG47); assay: biochemical; assay type: biochemical
[3] = tested on: M. tuberculosis H37Rv; assay: microbe, parasite or virus in culture; assay type: cell-based, Mycobacterium tuberculosis; settings: for MIC: Mycobacterium tuberculosis, H37RV, read-out: Mtb MIC

Chain of Mtb gyrase (P9WG45 whole entry, looked up): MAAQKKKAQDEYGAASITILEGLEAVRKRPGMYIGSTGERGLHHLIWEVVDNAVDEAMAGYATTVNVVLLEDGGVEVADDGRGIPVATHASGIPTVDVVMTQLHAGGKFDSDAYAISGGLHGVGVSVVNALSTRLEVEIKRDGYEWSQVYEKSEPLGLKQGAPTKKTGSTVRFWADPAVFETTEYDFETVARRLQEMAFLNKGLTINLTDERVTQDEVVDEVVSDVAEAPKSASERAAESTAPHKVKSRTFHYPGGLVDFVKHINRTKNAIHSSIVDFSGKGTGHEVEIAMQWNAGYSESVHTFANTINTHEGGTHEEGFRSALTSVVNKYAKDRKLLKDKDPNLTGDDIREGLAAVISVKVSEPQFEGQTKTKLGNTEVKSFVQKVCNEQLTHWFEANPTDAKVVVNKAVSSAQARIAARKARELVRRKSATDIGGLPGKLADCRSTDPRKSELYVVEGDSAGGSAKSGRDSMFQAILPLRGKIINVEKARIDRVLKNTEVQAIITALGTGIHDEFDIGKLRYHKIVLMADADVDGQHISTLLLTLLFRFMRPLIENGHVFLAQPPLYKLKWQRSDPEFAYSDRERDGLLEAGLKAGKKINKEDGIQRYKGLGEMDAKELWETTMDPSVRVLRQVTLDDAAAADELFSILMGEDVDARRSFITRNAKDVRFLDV
Chain of Mtb gyrase (P9WG47 whole entry, looked up): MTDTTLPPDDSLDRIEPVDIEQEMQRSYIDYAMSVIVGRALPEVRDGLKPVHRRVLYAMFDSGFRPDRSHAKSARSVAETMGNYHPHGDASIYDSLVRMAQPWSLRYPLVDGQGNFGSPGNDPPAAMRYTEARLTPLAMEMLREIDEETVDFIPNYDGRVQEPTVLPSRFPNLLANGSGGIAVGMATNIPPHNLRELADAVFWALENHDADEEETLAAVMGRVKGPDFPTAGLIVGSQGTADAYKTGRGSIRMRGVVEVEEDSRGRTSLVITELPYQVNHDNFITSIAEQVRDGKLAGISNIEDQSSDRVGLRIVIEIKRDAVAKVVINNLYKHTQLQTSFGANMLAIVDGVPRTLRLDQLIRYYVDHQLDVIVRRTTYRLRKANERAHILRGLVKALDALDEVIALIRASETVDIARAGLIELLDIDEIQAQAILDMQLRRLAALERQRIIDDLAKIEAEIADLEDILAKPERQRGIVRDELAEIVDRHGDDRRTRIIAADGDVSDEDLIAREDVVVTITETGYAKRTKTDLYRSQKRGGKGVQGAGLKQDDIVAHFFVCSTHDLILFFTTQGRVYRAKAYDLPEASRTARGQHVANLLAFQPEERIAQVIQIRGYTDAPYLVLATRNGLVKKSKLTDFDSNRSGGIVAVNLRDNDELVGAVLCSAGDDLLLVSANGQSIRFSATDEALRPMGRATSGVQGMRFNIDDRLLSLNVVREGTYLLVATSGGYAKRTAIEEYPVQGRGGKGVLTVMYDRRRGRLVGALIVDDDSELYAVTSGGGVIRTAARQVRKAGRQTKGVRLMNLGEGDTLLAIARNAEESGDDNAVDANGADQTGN

C[C@@H]1CN2c3c(cc4c(N5CC[C@@H](O)C5)noc4c3F)CC3(C(=O)NC(=O)NC3=O)[C@H]2[C@H](C)O1 [Compound 9, (2R,4S,4aS)-11-fluoro-8-((R)-3-hydroxypyrrolidin-1-yl)-2,4-dimethyl-1,2,4,4a-tetrahydro-2’H,6H-spiro[isoxazolo[4,5-g][1,4]oxazino[4,3-a]quinoline-5,5’-pyrimidine]-2’,4’,6’(1’H,3’H)-trione]
MIC [1]: 64 µM (≈ 30.3 µg/mL)

C[C@@H]1CN2c3c(cc4c(N5C[C@H](O)[C@@H](O)C5)noc4c3F)CC3(C(=O)NC(=O)NC3=O)[C@H]2[C@H](C)O1 [Compound 11, (2R,4S,4aS)-8-((3S,4S)-3,4-dihydroxypyrrolidin-1-yl)-11-fluoro-2,4-dimethyl-1,2,4,4a-tetrahydro-2’H,6H-spiro[isoxazolo[4,5-g][1,4]oxazino[4,3-a]quinoline-5,5’-pyrimidine]-2’,4’,6’(1’H,3’H)-trione]
MIC [1]: > 125 µM

C[C@@H]1CN2c3c(cc4c(N5C[C@@H](O)[C@@H](O)C5)noc4c3F)CC3(C(=O)NC(=O)NC3=O)[C@H]2[C@H](C)O1 [Compound 12, (2R,4S,4aS)-8-((3R,4S)-3,4-dihydroxypyrrolidin-1-yl)-11-fluoro-2,4-dimethyl-1,2,4,4a-tetrahydro-2’H,6H-spiro[isoxazolo[4,5-g][1,4]oxazino[4,3-a]quinoline-5,5’-pyrimidine]-2’,4’,6’(1’H,3’H)-trione]
MIC [1]: > 125 µM

C[C@@H]1CN2c3c(cc4c(N5CC[C@H](CO)C5)noc4c3F)CC3(C(=O)NC(=O)NC3=O)[C@H]2[C@H](C)O1 [Compound 14, (2R,4S,4aS)-11-fluoro-8-((S)-3-(hydroxymethyl)pyrrolidin-1-yl)-2,4-dimethyl-1,2,4,4a-tetrahydro-2’H,6H-spiro[isoxazolo[4,5-g][1,4]oxazino[4,3-a]quinoline-5,5’-pyrimidine]-2’,4’,6’(1’H,3’H)-trione]
Mtb gyrase IC50 fold higher (less potent) than moxifloxacin [2]: ≤ 2 fold

C[C@@H]1CN2c3c(cc4c(N5CC[C@@](C)(O)C5)noc4c3F)CC3(C(=O)NC(=O)NC3=O)[C@H]2[C@H](C)O1 [Compound 15, 11-fluoro-8-(3-hydroxy-3-methylpyrrolidin-1-yl)-2,4-dimethyl-1,2,4,4a-tetrahydro-2’H,6H-spiro[isoxazolo[4,5-g][1,4]oxazino[4,3-a]quinoline-5,5’-pyrimidine]-2’,4’,6’(1’H,3’H)-trione]
MIC ([3]; 192 h): > 125 µM

C[C@@H]1CN2c3c(cc4c(N5CC[C@H](N)C5)noc4c3F)CC3(C(=O)NC(=O)NC3=O)[C@H]2[C@H](C)O1 [Compound 16, (2R,4S,4aS)-8-((S)-3-aminopyrrolidin-1-yl)-11-fluoro-2,4-dimethyl-1,2,4,4a-tetrahydro-2’H,6H-spiro[isoxazolo[4,5-g][1,4]oxazino[4,3-a]quinoline-5,5’-pyrimidine]-2’,4’,6’(1’H,3’H)-trione]
fold higher Mtb MIC compared to 8 [3]: 9 to16 fold | Mtb gyrase IC50 fold higher (less potent) than moxifloxacin [2]: around 2 fold

C[C@@H]1CN2c3c(cc4c(N5CC[C@H](C#N)C5)noc4c3F)CC3(C(=O)NC(=O)NC3=O)[C@H]2[C@H](C)O1 [Compound 19, (S)-1-((2R,4S,4aS)-11-fluoro-2,4-dimethyl-2’,4’,6’-trioxo-1,1’,2,3’,4,4a,4’,6’-octahydro-2’H,6H-spiro[isoxazolo[4,5-g][1,4]oxazino[4,3-a]quinoline-5,5’-pyrimidin]-8-yl)pyrrolidine-3-carbonitrile]
Mtb gyrase IC50 fold higher (less potent) than moxifloxacin [2]: ≤ 2 fold

C[C@@H]1CN2c3c(cc4c(OC[C@@H]5CCC(=O)N5C)noc4c3F)CC3(C(=O)NC(=O)NC3=O)[C@H]2[C@H](C)O1 [Compound 25, (2R,4S,4aS)-11-fluoro-2,4-dimethyl-8-(((S)-1-methyl-5-oxopyrrolidin-2-yl)methoxy)-1,2,4,4a-tetrahydro-2’H,6H-spiro[isoxazolo[4,5-g][1,4]oxazino[4,3-a]quinoline-5,5’-pyrimidine]-2’,4’,6’(1’H,3’H)-trione]
fold less active against Mtb than 23 [3]: 4 fold

C[C@@H]1CN2c3c(cc4c(OC[C@@H]5CCC(=O)O5)noc4c3F)CC3(C(=O)NC(=O)NC3=O)[C@H]2[C@H](C)O1 [Compound 26, (2R,4S,4aS)-11-fluoro-2,4-dimethyl-8-(((S)-5-oxotetrahydrofuran-2-yl)methoxy)-1,2,4,4a-tetrahydro-2’H,6H-spiro[isoxazolo[4,5-g][1,4]oxazino[4,3-a]quinoline-5,5’-pyrimidine]-2’,4’,6’(1’H,3’H)-trione]
fold less active against Mtb than 23 [3]: 2- to 4 fold

C[C@@H]1CN2c3c(cc4c(OC[C@H]5CCC(=O)O5)noc4c3F)CC3(C(=O)NC(=O)NC3=O)[C@H]2[C@H](C)O1 [Compound 27, (2R,4S,4aS)-11-fluoro-2,4-dimethyl-8-(((R)-5-oxotetrahydrofuran-2-yl)methoxy)-1,2,4,4a-tetrahydro-2’H,6H-spiro[isoxazolo[4,5-g][1,4]oxazino[4,3-a]quinoline-5,5’-pyrimidine]-2’,4’,6’(1’H,3’H)-trione]
fold less active against Mtb than 23 [3]: 2- to 4 fold

C[C@@H]1CN2c3c(cc4c(OC[C@H]5COC(=O)N5)noc4c3F)CC3(C(=O)NC(=O)NC3=O)[C@H]2[C@H](C)O1 [Compound 29, (2R,4S,4aS)-11-fluoro-2,4-dimethyl-8-(((S)-2-oxooxazolidin-4-yl)methoxy)-1,2,4,4a-tetrahydro-2’H,6H-spiro[isoxazolo[4,5-g][1,4]oxazino[4,3-a]quinoline-5,5’-pyrimidine]-2’,4’,6’(1’H,3’H)-trione]
Mtb MIC [3]: 2.0 µM | MIC [3]: 2 µM (≈ 1.01 µg/mL)

C[C@@H]1CN2c3c(cc4c(OC[C@H]5CNC(=O)C5)noc4c3F)CC3(C(=O)NC(=O)NC3=O)[C@H]2[C@H](C)O1 [Compound 31, (2R,4S,4aS)-11-fluoro-2,4-dimethyl-8-(((R)-5-oxopyrrolidin-3-yl)methoxy)-1,2,4,4a-tetrahydro-2’H,6H-spiro[isoxazolo[4,5-g][1,4]oxazino[4,3-a]quinoline-5,5’-pyrimidine]-2’,4’,6’(1’H,3’H)-trione]
Mtb MIC [3]: 2.0 µM | MIC [3]: 2 µM (≈ 1 µg/mL)

C[C@@H]1CN2c3c(cc4c(OCC[C@@H]5CCC(=O)N5)noc4c3F)CC3(C(=O)NC(=O)NC3=O)[C@H]2[C@H](C)O1 [Compound 32, (2R,4S,4aS)-11-fluoro-2,4-dimethyl-8-(2-((S)-5-oxopyrrolidin-2-yl)ethoxy)-1,2,4,4a-tetrahydro-2’H,6H-spiro[isoxazolo[4,5-g][1,4]oxazino[4,3-a]quinoline-5,5’-pyrimidine]-2’,4’,6’(1’H,3’H)-trione]
fold less active against Mtb than 23 [3]: ~ 4 fold

C[C@@H]1CN2c3c(cc4c(N5C(=O)OC[C@@H]5C)noc4c3F)CC3(C(=O)NC(=O)NC3=O)[C@H]2[C@H](C)N1O [Compound 35, (2R,4S,4aS)-11-fluoro-3-hydroxy-2,4-dimethyl-8-((S)-4-methyl-2-oxooxazolidin-3-yl)-2,3,4,4a-tetrahydro-1H,2’H,6H-spiro[isoxazolo[4,5-g]pyrazino[1,2-a]quinoline-5,5’-pyrimidine]-2’,4’,6’(1’H,3’H)-trione]
IC50 [2]: 207 µM

CC(=O)N1[C@H](C)CN2c3c(cc4c(N5C(=O)OC[C@@H]5C)noc4c3F)CC3(C(=O)NC(=O)NC3=O)[C@H]2[C@@H]1C [Compound 36, (2R,4S,4aS)-3-acetyl-11-fluoro-2,4-dimethyl-8-((S)-4-methyl-2-oxooxazolidin-3-yl)-2,3,4,4a-tetrahydro-1H,2’H,6H-spiro[isoxazolo[4,5-g]pyrazino[1,2-a]quinoline-5,5’-pyrimidine]-2’,4’,6’(1’H,3’H)-trione]
IC50 [2]: > 1000 µM

C[C@@H]1CN2c3c(cc4c(N5C(=O)OC[C@@H]5C)noc4c3F)CC3(C(=O)NC(=O)NC3=O)[C@H]2[C@H](C)N1C#N [Compound 38, (2R,4S,4aS)-11-fluoro-2,4-dimethyl-8-((S)-4-methyl-2-oxooxazolidin-3-yl)-2’,4’,6’-trioxo-1,1’,2,3’,4,4a,4’,6’-octahydro-2’H,3H,6H-spiro[isoxazolo[4,5-g]pyrazino[1,2-a]quinoline-5,5’-pyrimidine]-3-carbonitrile]
fold more active against Mtb than matched pair zoliflodacin [3]: ~2 fold

C[C@@H]1CN2c3c(cc4c(-n5cncn5)noc4c3F)CC3(C(=O)NC(=O)NC3=O)[C@H]2[C@H](C)N1C#N [Compound 39, 11-fluoro-2,4-dimethyl-2’,4’,6’-trioxo-8-(1H-1,2,4-triazol-1-yl)-1,1’,2,3’,4,4a,4’,6’-octahydro-2’H,3H,6H-spiro[isoxazolo[4,5-g]pyrazino[1,2-a]quinoline-5,5’-pyrimidine]-3-carbonitrile]
fold more active against Mtb than matched pair 7 [3]: 2 fold | MIC ([3]; 192 h): 0.9 µM (≈ 0.431 µg/mL)

C[C@@H]1CN2c3c(cc4c(OC[C@@H]5CCC(=O)N5)noc4c3F)CC3(C(=O)NC(=O)NC3=O)[C@H]2[C@H](C)N1C#N [Compound 42, (2R,4S,4aS)-11-fluoro-2,4-dimethyl-2’,4’,6’-trioxo-8-(((S)-5-oxopyrrolidin-2-yl)methoxy)-1,1’,2,3’,4,4a,4’,6’-octahydro-2’H,3H,6H-spiro[isoxazolo[4,5-g]pyrazino[1,2-a]quinoline-5,5’-pyrimidine]-3-carbonitrile]
IC50 [2]: 2.6 µM

Cc1nnc(-c2noc3c(F)c4c(cc23)CC2(C(=O)NC(=O)NC2=O)[C@H]2[C@H](C)[C@@H](O)[C@H](C)CN42)o1 [Compound 45, (2R,3S,4S,4aR)-11-fluoro-3-hydroxy-2,4-dimethyl-8-(5-methyl-1,3,4-oxadiazol-2-yl)-2,3,4,4a-tetrahydro-1H,2’H,6H-spiro[isoxazolo[4,5-g]pyrido[1,2-a]quinoline-5,5’-pyrimidine]-2’,4’,6’(1’H,3’H)-trione]
fold reduction in Mtb activity relative to matched pair 5 [3]: 10 fold

Cc1nnc(-c2noc3c(F)c4c(cc23)CC2(C(=O)NC(=O)NC2=O)[C@H]2[C@H](C)O[C@H](C)CN42)o1 [Methyl-oxadiazole 5, reference compound]
fold less active against Mtb than moxifloxacin [3]: 10 fold | MIC [3]: 1.7 µM (≈ 0.8 µg/mL) | fold more potent as inhibitor of Mtb gyrase than moxifloxacin [2]: 5 fold

C[C@@H]1CN2c3c(cc4c(N5C(=O)OC[C@@H]5C)noc4c3F)CC3(C(=O)NC(=O)NC3=O)[C@H]2[C@H](C)O1 [Zoliflodacin 4, zoliflodacin, reference compound]
MIC [3]: 7 µM (≈ 3.41 µg/mL)
